Assay results as given in publication PMC6331910, “The Curcumin Analogue 1,5-Bis(2-hydroxyphenyl)-1,4-pentadiene-3-one Induces Apoptosis and Downregulates E6 and E7 Oncogene Expression in HPV16 and HPV18-Infected Cervical Cancer Cells” (Molecules, 2015).

Assays:
CaSki = assay: MTT anti-proliferative (time-dependent) assay, 24, 48 and 72 h; assay type: cell-based, human; conditions: for cell viability: 3.1–100 μM
Protocol: (§1) HeLa, CaSki and MRC9 cells were plated in triplicate wells in 96-well flat-bottomed tissue culture plates (Nunc, Roskilde, Denmark) with 10^5 cells per mL in 100 μL culture media with working concentrations of diarylpentanoid treatment ranging from 1.6 to 100 μM. Control-treated wells contained cells incubated in media with equal volumes of DMSO (0.2%). Cells were treated for 72 h for dose-dependent cytotoxicity assays and at 24, 48 and 72 h for anti-proliferative (time-dependent) assays. In order to assess cell viability and anti-proliferative activity after diarylpentanoid treatment, the colorimetric 3-(4,5-dimethylthiazol-2-yl)-2,5-diphenyltetrazolium bromide (MTT) assay was performed as previously described with modifications. The media was aspirated and cells were incubated in 100 µL complete medium with 0.5 mg/mL MTT solution for 4 h in the dark to allow metabolism of MTT by cellular mitochondrial dehydrogenases. The excess MTT was aspirated and the formazan crystals formed were dissolved by the addition of 100 µL of DMSO. The absorbance of dark blue formazan was read at 570/650 nm wavelengths using a microplate reader (Bio-Rad Benchmark Plus Microplate Spectrophotometer, Hercules, CA, USA). Triplicate absorbance values were averaged and the effect of the compounds on growth inhibition was assessed as percentage cell viability as follows: (1) Percentage cell viability =Absorbance of Test − Absorbance of Blank (media only)/Absorbance of Control − Absorbance of Blank (media only) × 100 where, absorbance = optical density of sample, O.D.; control = untreated sample; test = treated sample.
(§2) An independent set of vehicle-treated (DMSO only) controls were included in the anti-proliferative assays to assess the proliferation of untreated cancer cells over 24, 48 and 72 h. As such, the cell viability at 24 h was used as a baseline to measure proliferation rate at 48 and 72 h. (2) Percentage cell viability = […]/Absorbance of Control (24 h) × Absorbance of Blank (media only) × 100

HeLa = assay: as above; assay type: cell-based, human
Protocol: as §1, §2

O=C(C=Cc1ccccc1O)C=Cc1ccccc1O [MS17, 1,5-bis(2-hydroxyphenyl)-1,4-pentadiene-3-one]
dosage from which reduction in cell viability was significantly higher at 48 and 72 h than at 24 h (CaSki): 3.1 µM | cell growth (CaSki; 12.5 μM onwards, 24 h): 43% | cell viability (CaSki; 48 h): 22% | cell viability (CaSki; 72 h): 9% | dosage from which reduction in cell viability was significantly higher at 48 and 72 h than at 24 h (HeLa): 6.3 µM | cell viability (HeLa; 6.3 μM onwards, 24 h): 34% | cell growth (HeLa; 6.3 μM onwards, 48 h): 12% | cell growth (HeLa; 6.3 μM onwards, 72 h): 5%
